Laboratory results as given in PubChem BioAssay (NCI).
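Exposure lasted 48 hours, with cells grown in 96-well plates and compounds tested at five concentrations. Here, GI50 denotes the concentration required for 50% inhibition of growth. TGI: concentration producing complete growth inhibition.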

How the values were obtained:
Experiment in all cases: DTP human tumour cell line panel, 48 h
DU-145 prostate = system: DU-145 prostate
SK-MEL-5 melanoma = system: SK-MEL-5 melanoma
786-0 renal = system: 786-0 renal
SR leukemia = system: SR leukemia
KM12 colon = system: KM12 colon
RXF 393 renal = system: RXF 393 renal
NCI-H460 lung = system: NCI-H460 lung
SK-MEL-28 melanoma = system: SK-MEL-28 melanoma
OVCAR-4 ovarian = system: OVCAR-4 ovarian
UACC-62 melanoma = system: UACC-62 melanoma
HL-60(TB) leukemia = system: HL-60(TB) leukemia
NCI-H522 lung = system: NCI-H522 lung
SF-539 CNS = system: SF-539 CNS
BT-549 breast = system: BT-549 breast
PC-3 prostate = system: PC-3 prostate
HT29 colon = system: HT29 colon
SNB-19 CNS = system: SNB-19 CNS
SNB-75 CNS = system: SNB-75 CNS
HS 578T breast = system: HS 578T breast
SF-295 CNS = system: SF-295 CNS
SK-OV-3 ovarian = system: SK-OV-3 ovarian
HOP-92 NSCLC = system: HOP-92 NSCLC
LOX IMVI melanoma = system: LOX IMVI melanoma
T-47D breast = system: T-47D breast
OVCAR-5 ovarian = system: OVCAR-5 ovarian
NCI-H226 lung = system: NCI-H226 lung
MALME-3M melanoma = system: MALME-3M melanoma
HCT-116 colon = system: HCT-116 colon
OVCAR-8 ovarian = system: OVCAR-8 ovarian
M14 melanoma = system: M14 melanoma
A549 NSCLC = system: A549 NSCLC
A498 renal = system: A498 renal
ACHN renal = system: ACHN renal
COLO 205 colon = system: COLO 205 colon
K-562 leukemia = system: K-562 leukemia
MCF7 breast = system: MCF7 breast
NCI/ADR-RES ovarian = system: NCI/ADR-RES ovarian
SN12C renal = system: SN12C renal
HCC-2998 colon = system: HCC-2998 colon
IGROV1 ovarian = system: IGROV1 ovarian
SW-620 colon = system: SW-620 colon
EKVX NSCLC = system: EKVX NSCLC
SK-MEL-2 melanoma = system: SK-MEL-2 melanoma
OVCAR-3 ovarian = system: OVCAR-3 ovarian
SF-268 CNS = system: SF-268 CNS
TK-10 renal = system: TK-10 renal
CCRF-CEM leukemia = system: CCRF-CEM leukemia
MDA-MB-435 = system: MDA-MB-435
U251 CNS = system: U251 CNS
HOP-62 NSCLC = system: HOP-62 NSCLC
MOLT-4 leukemia = system: MOLT-4 leukemia
RPMI-8226 leukemia = system: RPMI-8226 leukemia
CAKI-1 renal = system: CAKI-1 renal
MDA-MB-231 breast = system: MDA-MB-231 breast
UO-31 renal = system: UO-31 renal
NCI-H23 lung = system: NCI-H23 lung
UACC-257 melanoma = system: UACC-257 melanoma
HCT-15 colon = system: HCT-15 colon

## Cn1cc(-c2nc(N)nnc2-c2c[nH]c3ccccc23)c2cc(Br)ccc21
DU-145 prostate
  GI50: 3.26 µM
  TGI: 14.8 µM
SK-MEL-5 melanoma
  GI50: 1.58 µM
  TGI: 9.96 µM
786-0 renal
  GI50: 2.65 µM
  TGI: 17.6 µM
SR leukemia
  GI50: 0.312 µM
  TGI: 2.43 µM
KM12 colon
  GI50: 0.591 µM
  TGI: 11.9 µM
RXF 393 renal
  GI50: 1.17 µM
  TGI: 4.4 µM
NCI-H460 lung
  GI50: 0.551 µM
  TGI: 12.2 µM
SK-MEL-28 melanoma
  GI50: 6.98 µM
  TGI: 22.5 µM
OVCAR-4 ovarian
  GI50: 3.72 µM
  TGI: 21.8 µM
UACC-62 melanoma
  GI50: 0.988 µM
  TGI: 18.9 µM
HL-60(TB) leukemia
  GI50: 0.451 µM
  TGI: 7.69 µM
NCI-H522 lung
  GI50: 0.646 µM
  TGI: 8.03 µM
SF-539 CNS
  GI50: 2.17 µM
  TGI: 6.88 µM
BT-549 breast
  GI50: 1.53 µM
  TGI: 14.5 µM
PC-3 prostate
  GI50: 2.12 µM
  TGI: 64 µM
HT29 colon
  GI50: 0.483 µM
  TGI: 5.38 µM
SNB-19 CNS
  GI50: 2.05 µM
  TGI: 22.7 µM
SNB-75 CNS
  GI50: 0.46 µM
  TGI: 4.54 µM
HS 578T breast
  GI50: 1.89 µM
  TGI: 9.3 µM
SF-295 CNS
  GI50: 0.922 µM
  TGI: 11.4 µM
SK-OV-3 ovarian
  GI50: 3.02 µM
  TGI: 18.7 µM
HOP-92 NSCLC
  GI50: 2.62 µM
  TGI: 22.4 µM
LOX IMVI melanoma
  GI50: 1.37 µM
  TGI: 27.4 µM
T-47D breast
  GI50: 0.783 µM
  TGI: 24.4 µM
OVCAR-5 ovarian
  GI50: 5.9 µM
  TGI: 25.5 µM
NCI-H226 lung
  GI50: 2.39 µM
  TGI: 15.9 µM
MALME-3M melanoma
  GI50: 6.12 µM
  TGI: 32.2 µM
HCT-116 colon
  GI50: 0.518 µM
  TGI: 11.9 µM
OVCAR-8 ovarian
  GI50: 3.62 µM
  TGI: 69.5 µM
M14 melanoma
  GI50: 0.768 µM
  TGI: 8.45 µM
A549 NSCLC
  GI50: 1.55 µM
  TGI: 39.7 µM
A498 renal
  GI50: 1.19 µM
  TGI: 5.7 µM
ACHN renal
  GI50: 3.57 µM
  TGI: 20 µM
COLO 205 colon
  GI50: 0.877 µM
  TGI: 7.13 µM
K-562 leukemia
  GI50: 0.393 µM
  TGI: 13.2 µM
MCF7 breast
  GI50: 0.48 µM
  TGI: 16.4 µM
NCI/ADR-RES ovarian
  GI50: 1.67 µM
  TGI: 18.6 µM
SN12C renal
  GI50: 5.17 µM
  TGI: 47.9 µM
HCC-2998 colon
  GI50: 2.7 µM
  TGI: 13.7 µM
IGROV1 ovarian
  GI50: 0.9 µM
  TGI: 24.2 µM
SW-620 colon
  GI50: 0.67 µM
  TGI: 15.9 µM
EKVX NSCLC
  GI50: 2.62 µM
  TGI: 23.4 µM
SK-MEL-2 melanoma
  GI50: 1.9 µM
  TGI: 13.6 µM
OVCAR-3 ovarian
  GI50: 0.507 µM
  TGI: 4.94 µM
SF-268 CNS
  GI50: 2.51 µM
  TGI: 18.6 µM
TK-10 renal
  GI50: 6.01 µM
  TGI: 34.3 µM
CCRF-CEM leukemia
  GI50: 2.21 µM
  TGI: 13.5 µM
MDA-MB-435
  GI50: 0.312 µM
  TGI: 11.8 µM
U251 CNS
  GI50: 2.26 µM
  TGI: 15.2 µM
HOP-62 NSCLC
  GI50: 2.52 µM
  TGI: 19.9 µM
MOLT-4 leukemia
  GI50: 0.684 µM
  TGI: 4.05 µM
RPMI-8226 leukemia
  GI50: 2.35 µM
  TGI: 46.2 µM
CAKI-1 renal
  GI50: 0.536 µM
  TGI: 13.6 µM
MDA-MB-231 breast
  GI50: 4.49 µM
  TGI: 66.1 µM
UO-31 renal
  GI50: 1.99 µM
  TGI: 20.8 µM
NCI-H23 lung
  GI50: 2.21 µM
  TGI: 17.2 µM
UACC-257 melanoma
  GI50: 7.26 µM
  TGI: 22.4 µM
HCT-15 colon
  GI50: 0.552 µM
  TGI: 16.4 µM
